Measured values taken from patent US20200231638A1, “STABILIZED ANTI-MICROBIAL PEPTIDES” (priority 2015, published 2020).
Each block holds one compound with its values, some of them ahead of it. Bridge positions count the residues as written; N and C are the ends. Square brackets hold non-standard residues; d marks the D form. Peptide text beside a SMILES is read from it. Hyp = O=C(O)[C@@H]1C[C@@H](O)CN1; S5 = C=CCCC[C@](C)(N)C(=O)O; Nle = CCCC[C@H](N)C(=O)O; Aib = CC(C)(N)C(=O)O

Tests used:
[1] = test system: E. coli; format: cell-based, Escherichia coli
Summary of the method: (§1)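 Microdilution MIC test in polyanion-depleted MHB, with a final inoculum of 5×10^5 CFU/ml and 20-24 h incubation at 37° C.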

[2] = test system: B. cereus; format: cell-based, Bacillus cereus
Summary of the method: as §1

[3] = test system: S. aureus; format: cell-based, Staphylococcus aureus
Summary of the method: as §1

[4] = test system: P. aeruginosa; format: cell-based, Pseudomonas aeruginosa
Summary of the method: as §1

[5] = test system: human red blood cells; format: cell-based; details: red cells of human, 1 h, 25
Summary of the method: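 Hemolysis expressed as absorbance of released hemoglobin (570 nm) normalized between untreated and 1% Triton-X100 controls, with MHC taken as peptide concentration giving under 1% release. Peptide dilutions were exposed for 1 h at 37° C to a 1% (v/v) suspension of washed human red cells in PBS.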

Compound: CCCC[C@H](NC(=O)[C@]1(C)CCCC=CCCC[C@](C)(NC(=O)[C@H](C)NC(=O)[C@H](CCCCN)NC(=O)CNC(=O)[C@H](Cc2ccccc2)NC(=O)[C@H](CCCCN)NC(=O)[C@H](CCCCN)NC(=O)[C@H](C)NC(=O)[C@H](CO)NC(=O)[C@H](Cc2c[nH]cn2)NC(=O)[C@H](CC(C)C)NC(=O)[C@H](Cc2ccccc2)NC(=O)[C@H](CCCCN)NC(=O)CNC(=O)[C@@H](NC(=O)[C@@H](N)CCC(=O)O)[C@@H](C)CC)C(=O)N[C@@H](C(C)C)C(=O)NCC(=O)N[C@@H](CCC(=O)O)C(=O)N1)C(=O)N[C@@H](CC(N)=O)C(=O)N[C@@H](CO)C(N)=O [Mag(i + 4)15(G1E), EIGKFLHSAKKFGKAXVGEXBNS] (H-EIGKFLHSAKKFGKA[S5]VGE[S5][Nle]NS-NH2; staple 16-20)
MIC E. coli [1]: 12.5 µg/mL
MIC B. cereus [2]: >50 µg/mL
MIC S. aureus [3]: >50 µg/mL
MIC P. aeruginosa [4]: 50 µg/mL
% Hemolysis at 25 μg/ml [5]: 4.1%

Compound: CCCC[C@H](NC(=O)[C@]1(C)CCCC=CCCC[C@](C)(NC(=O)[C@H](C)NC(=O)[C@H](CCCCN)NC(=O)CNC(=O)[C@H](Cc2ccccc2)NC(=O)[C@H](CCCCN)NC(=O)[C@H](CCCCN)NC(=O)[C@H](C)NC(=O)[C@H](CO)NC(=O)[C@H](Cc2c[nH]cn2)NC(=O)[C@H](CC(C)C)NC(=O)[C@H](Cc2ccccc2)NC(=O)[C@H](CCCCN)NC(=O)CNC(=O)[C@@H](NC(=O)[C@@H](N)CCCCN)[C@@H](C)CC)C(=O)N[C@@H](C(C)C)C(=O)NCC(=O)N[C@@H](CCC(=O)O)C(=O)N1)C(=O)N[C@@H](CC(N)=O)C(=O)N[C@@H](CO)C(N)=O [Mag(i + 4)15(G1K), KIGKFLHSAKKFGKAXVGEXBNS] (H-KIGKFLHSAKKFGKA[S5]VGE[S5][Nle]NS-NH2; staple 16-20)
MIC E. coli [1]: 1.6 µg/mL
MIC B. cereus [2]: 12.5 µg/mL
MIC S. aureus [3]: 25 µg/mL
MIC P. aeruginosa [4]: 3.1 µg/mL
% Hemolysis at 25 μg/ml [5]: 4.5%

Compound: CCCC[C@H](NC(=O)[C@]1(C)CCCC=CCCC[C@](C)(NC(=O)[C@H](C)NC(=O)[C@H](CCCCN)NC(=O)CNC(=O)[C@H](Cc2ccccc2)NC(=O)[C@H](CCCCN)NC(=O)[C@H](CCCCN)NC(=O)[C@H](C)NC(=O)[C@H](CO)NC(=O)[C@H](Cc2c[nH]cn2)NC(=O)[C@H](CC(C)C)NC(=O)[C@H](Cc2ccccc2)NC(=O)[C@H](CCCCN)NC(=O)[C@H](Cc2c[nH]cn2)NC(=O)[C@@H](NC(=O)CN)[C@@H](C)CC)C(=O)N[C@@H](C(C)C)C(=O)NCC(=O)N[C@@H](CCC(=O)O)C(=O)N1)C(=O)N[C@@H](CC(N)=O)C(=O)N[C@@H](CO)C(N)=O [Mag(i + 4)15(G3H), GIHKFLHSAKKFGKAXVGEXBNS] (H-GIHKFLHSAKKFGKA[S5]VGE[S5][Nle]NS-NH2; staple 16-20)
MIC E. coli [1]: 1.6 µg/mL
MIC B. cereus [2]: 6.2 µg/mL
MIC S. aureus [3]: 25 µg/mL
MIC P. aeruginosa [4]: 12.5 µg/mL
% Hemolysis at 25 μg/ml [5]: 5.1%

Compound: CCCC[C@H](NC(=O)[C@]1(C)CCCC=CCCC[C@](C)(NC(=O)[C@H](C)NC(=O)[C@H](CCCCN)NC(=O)C(C)(C)NC(=O)[C@H](Cc2ccccc2)NC(=O)[C@H](CCCCN)NC(=O)[C@H](CCCCN)NC(=O)[C@H](C)NC(=O)[C@H](CO)NC(=O)[C@H](Cc2c[nH]cn2)NC(=O)[C@H](CC(C)C)NC(=O)[C@H](Cc2ccccc2)NC(=O)[C@H](CCCCN)NC(=O)CNC(=O)[C@@H](NC(=O)CN)[C@@H](C)CC)C(=O)N[C@@H](C(C)C)C(=O)NCC(=O)N[C@@H](CCC(=O)O)C(=O)N1)C(=O)N[C@@H](CC(N)=O)C(=O)N[C@@H](CO)C(N)=O [Mag(i + 4)15(G13!), GIGKFLHSAKKF!KAXVGEXBNS] (H-GIGKFLHSAKKF[Aib]KA[S5]VGE[S5][Nle]NS-NH2; staple 16-20)
MIC E. coli [1]: 1.6 µg/mL
MIC B. cereus [2]: 3.1 µg/mL
MIC S. aureus [3]: 3.1 µg/mL
MIC P. aeruginosa [4]: 3.1 µg/mL
% Hemolysis at 25 μg/ml [5]: 71.5%

Compound: CCCC[C@H](NC(=O)[C@]1(C)CCCC=CCCC[C@](C)(NC(=O)[C@H](C)NC(=O)[C@H](CCCCN)NC(=O)[C@@H]2C[C@@H](O)CN2C(=O)[C@H](Cc2ccccc2)NC(=O)[C@H](CCCCN)NC(=O)[C@H](CCCCN)NC(=O)[C@H](C)NC(=O)[C@H](CO)NC(=O)[C@H](Cc2c[nH]cn2)NC(=O)[C@H](CC(C)C)NC(=O)[C@H](Cc2ccccc2)NC(=O)[C@H](CCCCN)NC(=O)CNC(=O)[C@@H](NC(=O)CN)[C@@H](C)CC)C(=O)N[C@@H](C(C)C)C(=O)NCC(=O)N[C@@H](CCC(=O)O)C(=O)N1)C(=O)N[C@@H](CC(N)=O)C(=O)N[C@@H](CO)C(N)=O [Mag(i + 4)15(G13&), GIGKFLHSAKKF&KAXVGEXBNS] (H-GIGKFLHSAKKF[Hyp]KA[S5]VGE[S5][Nle]NS-NH2; staple 16-20)
MIC E. coli [1]: 12.5 µg/mL
MIC B. cereus [2]: >50 µg/mL
MIC S. aureus [3]: >50 µg/mL
MIC P. aeruginosa [4]: 50 µg/mL
% Hemolysis at 25 μg/ml [5]: 1.3%

The next lines start with results.

MIC E. coli [1]: 3.1 µg/mL
MIC B. cereus [2]: 12.5 µg/mL
MIC S. aureus [3]: 50 µg/mL
MIC P. aeruginosa [4]: 12.5 µg/mL
Compound: CCCC[C@H](NC(=O)[C@]1(C)CCCC=CCCC[C@](C)(NC(=O)[C@H](C)NC(=O)[C@H](CCCCN)NC(=O)CNC(=O)[C@H](Cc2ccccc2)NC(=O)[C@H](CCCCN)NC(=O)[C@H](CCCCN)NC(=O)[C@H](C)NC(=O)[C@H](CO)NC(=O)[C@H](Cc2c[nH]cn2)NC(=O)[C@H](CC(C)C)NC(=O)[C@H](Cc2ccccc2)NC(=O)[C@H](CCCCN)NC(=O)[C@H](CCC(=O)O)NC(=O)[C@@H](NC(=O)CN)[C@@H](C)CC)C(=O)N[C@@H](C(C)C)C(=O)NCC(=O)N[C@@H](CCC(=O)O)C(=O)N1)C(=O)N[C@@H](CC(N)=O)C(=O)N[C@@H](CO)C(N)=O [Mag(i + 4)15(G3E), GIEKFLHSAKKFGKAXVGEXBNS] (H-GIEKFLHSAKKFGKA[S5]VGE[S5][Nle]NS-NH2; staple 16-20)
% Hemolysis at 25 μg/ml [5]: 3.9%

MIC E. coli [1]: 1.6 µg/mL
MIC B. cereus [2]: 6.2 µg/mL
MIC S. aureus [3]: 12.5 µg/mL
MIC P. aeruginosa [4]: 3.1 µg/mL
Compound: CCCC[C@H](NC(=O)[C@]1(C)CCCC=CCCC[C@](C)(NC(=O)[C@H](C)NC(=O)[C@H](CCCCN)NC(=O)CNC(=O)[C@H](Cc2ccccc2)NC(=O)[C@H](CCCCN)NC(=O)[C@H](CCCCN)NC(=O)[C@H](C)NC(=O)[C@H](CO)NC(=O)[C@H](Cc2c[nH]cn2)NC(=O)[C@H](CC(C)C)NC(=O)[C@H](Cc2ccccc2)NC(=O)[C@H](CCCCN)NC(=O)[C@H](CCCCN)NC(=O)[C@@H](NC(=O)CN)[C@@H](C)CC)C(=O)N[C@@H](C(C)C)C(=O)NCC(=O)N[C@@H](CCC(=O)O)C(=O)N1)C(=O)N[C@@H](CC(N)=O)C(=O)N[C@@H](CO)C(N)=O [Mag(i + 4)15(G3K), GIKKFLHSAKKFGKAXVGEXBNS] (H-GIKKFLHSAKKFGKA[S5]VGE[S5][Nle]NS-NH2; staple 16-20)
% Hemolysis at 25 μg/ml [5]: 3.8%
